For one test, the target named is T1, αllbβ3 integrin (Homo sapiens, UniProt P05106+P08514).
T1 construct: Human platelet membrane preparations were used as a source of αllbβ3 integrin; from tissue; host or cells: human platelets (membrane preparation)
As to the kind of experiment: ELISA: inhibition of binding of αllbβ3 integrin membrane preparation to coated extracellular matrix protein. The settings on record: human platelet membrane preparation. The method, then:
(§1) An ELISA assay based on the published method of Bethert et al., 2000, J Biol Chem 275, 33308-23, was employed.
(§2) Briefly, appropriate microtitre plates were coated with either Fibrinogen or Vitronectin (10 μg/well). These extracellular matrix proteins contain the RGD amino acid sequence that is recognized by αllbβ3 integrin. Human platelet membrane preparations were used as a source of αllbβ3 integrin and the cell line WM-115 was used as a source of αVβ3 integrin. Inhibition of the binding of αllbβ3 integrin containing membrane preparations to the extracellular matrix protein was determined by pre-incubating the platelet membrane preparation with test or control compounds. The binding of the αllbβ3 integrin containing membrane was the quantitated by using a rabbit anti-integrinβ3 antibody, a horse radish peroxidase coupled second antibody and a standard colorimetric detection system.

The target of the next test is T2, αVβ3 integrin (Homo sapiens, UniProt P05106+P06756).
T2 construct: the cell line WM-115 was used as a source of αVβ3 integrin; endogenous in cells; host or cells: WM-115 cell line
As to the kind of experiment: ELISA: inhibition of binding of αVβ3 integrin (source WM-115 cell line) to coated extracellular matrix protein. The settings on record: WM-115 cell line as integrin source. The method, then: as §1, §2

T1 sequence (P08514 32-887 limits assumed): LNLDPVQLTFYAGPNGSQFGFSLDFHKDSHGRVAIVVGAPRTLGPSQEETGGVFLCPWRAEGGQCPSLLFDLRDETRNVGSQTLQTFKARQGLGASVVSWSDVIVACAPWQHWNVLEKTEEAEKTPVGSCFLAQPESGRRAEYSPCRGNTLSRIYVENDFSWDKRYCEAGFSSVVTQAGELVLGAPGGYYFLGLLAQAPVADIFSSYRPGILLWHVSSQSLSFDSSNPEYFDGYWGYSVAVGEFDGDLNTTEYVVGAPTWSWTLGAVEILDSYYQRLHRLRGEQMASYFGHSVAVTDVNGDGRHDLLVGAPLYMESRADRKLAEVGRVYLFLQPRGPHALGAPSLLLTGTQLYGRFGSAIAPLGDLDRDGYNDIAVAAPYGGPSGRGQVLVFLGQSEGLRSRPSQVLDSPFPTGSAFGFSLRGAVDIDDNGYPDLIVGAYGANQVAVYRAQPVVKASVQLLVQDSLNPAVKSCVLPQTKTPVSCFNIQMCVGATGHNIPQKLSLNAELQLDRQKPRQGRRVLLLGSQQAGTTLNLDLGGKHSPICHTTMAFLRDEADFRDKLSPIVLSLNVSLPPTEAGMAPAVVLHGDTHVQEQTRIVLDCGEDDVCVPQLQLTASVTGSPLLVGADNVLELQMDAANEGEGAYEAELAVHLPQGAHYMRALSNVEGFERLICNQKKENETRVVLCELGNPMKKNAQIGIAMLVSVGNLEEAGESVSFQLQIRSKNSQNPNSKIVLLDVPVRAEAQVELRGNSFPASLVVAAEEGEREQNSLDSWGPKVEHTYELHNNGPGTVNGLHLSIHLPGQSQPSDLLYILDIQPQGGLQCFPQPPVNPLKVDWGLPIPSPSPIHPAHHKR
T1 sequence (P08514 891-1039 partner limits assumed): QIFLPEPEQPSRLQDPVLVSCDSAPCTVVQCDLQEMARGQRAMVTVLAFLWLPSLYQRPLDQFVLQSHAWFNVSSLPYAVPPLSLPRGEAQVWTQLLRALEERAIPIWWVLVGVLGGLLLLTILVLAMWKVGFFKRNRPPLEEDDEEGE
T1 sequence (P05106 27-788): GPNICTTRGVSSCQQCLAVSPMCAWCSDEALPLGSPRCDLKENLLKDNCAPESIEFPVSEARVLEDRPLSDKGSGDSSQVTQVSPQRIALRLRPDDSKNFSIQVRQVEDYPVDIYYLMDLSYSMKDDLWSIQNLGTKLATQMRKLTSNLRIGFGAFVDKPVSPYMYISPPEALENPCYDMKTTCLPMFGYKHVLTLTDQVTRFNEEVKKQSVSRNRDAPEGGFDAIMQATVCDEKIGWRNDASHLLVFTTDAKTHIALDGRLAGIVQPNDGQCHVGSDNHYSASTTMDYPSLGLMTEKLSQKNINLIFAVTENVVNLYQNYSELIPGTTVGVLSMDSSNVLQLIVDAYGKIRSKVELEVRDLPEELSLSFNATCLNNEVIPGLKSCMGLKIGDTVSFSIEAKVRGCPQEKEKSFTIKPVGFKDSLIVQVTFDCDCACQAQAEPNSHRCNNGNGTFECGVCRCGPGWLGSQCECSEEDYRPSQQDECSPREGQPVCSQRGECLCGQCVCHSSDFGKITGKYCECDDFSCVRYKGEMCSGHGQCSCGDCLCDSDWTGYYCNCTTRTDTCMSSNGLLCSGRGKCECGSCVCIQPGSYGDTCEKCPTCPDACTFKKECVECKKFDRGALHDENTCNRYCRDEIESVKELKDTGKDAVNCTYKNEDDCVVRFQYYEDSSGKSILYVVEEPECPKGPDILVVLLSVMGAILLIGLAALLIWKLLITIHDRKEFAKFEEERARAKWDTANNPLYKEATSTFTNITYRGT
T2 sequence (P06756 31-889 limits assumed): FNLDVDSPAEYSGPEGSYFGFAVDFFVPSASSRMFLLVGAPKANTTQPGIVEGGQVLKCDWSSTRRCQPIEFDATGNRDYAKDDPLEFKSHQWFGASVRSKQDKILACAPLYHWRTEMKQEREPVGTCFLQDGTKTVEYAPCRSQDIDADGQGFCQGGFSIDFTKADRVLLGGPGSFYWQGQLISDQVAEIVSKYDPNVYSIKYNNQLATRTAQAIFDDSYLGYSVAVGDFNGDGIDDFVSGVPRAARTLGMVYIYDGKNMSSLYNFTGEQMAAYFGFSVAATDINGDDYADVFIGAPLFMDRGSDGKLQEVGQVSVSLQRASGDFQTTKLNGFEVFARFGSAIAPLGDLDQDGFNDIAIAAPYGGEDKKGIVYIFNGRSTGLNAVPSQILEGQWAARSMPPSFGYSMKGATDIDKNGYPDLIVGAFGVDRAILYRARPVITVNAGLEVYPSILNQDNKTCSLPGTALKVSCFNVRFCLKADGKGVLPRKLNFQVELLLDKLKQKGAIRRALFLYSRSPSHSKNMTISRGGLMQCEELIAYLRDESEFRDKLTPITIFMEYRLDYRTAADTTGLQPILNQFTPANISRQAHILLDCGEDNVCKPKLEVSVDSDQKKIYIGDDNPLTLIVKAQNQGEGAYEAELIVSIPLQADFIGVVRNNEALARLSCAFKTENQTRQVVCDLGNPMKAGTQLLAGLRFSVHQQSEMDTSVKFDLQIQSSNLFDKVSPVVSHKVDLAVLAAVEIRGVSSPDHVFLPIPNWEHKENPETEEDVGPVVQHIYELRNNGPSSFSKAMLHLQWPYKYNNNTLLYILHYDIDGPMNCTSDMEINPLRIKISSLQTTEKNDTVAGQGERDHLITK
T2 sequence (P06756 891-1048 partner limits assumed): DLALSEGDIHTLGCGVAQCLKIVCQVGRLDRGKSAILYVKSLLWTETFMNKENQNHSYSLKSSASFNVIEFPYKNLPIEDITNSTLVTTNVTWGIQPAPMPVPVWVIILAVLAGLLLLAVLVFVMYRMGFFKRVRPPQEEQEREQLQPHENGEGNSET
T2 sequence (P05106 27-788): as the sequence (P05106 27-788) above

As to `COC(=O)COCC1OC(OC)C(NC(=O)CCCNC(=N)N)C(OCc2ccccc2)C1O` (single isomer, unassigned) [Compound 126], at αllbβ3 integrin, the “INHIBITION @ 250 uM RECEPTOR allBb3 SUBSTRATE FIBRINOGEN” value is on record as “++ (61% to 80% inhibition at 250 micromolar)” and the “INHIBITION 250 uM RECEPTOR allBb3 SUBSTRATE VITRONECTIN” value was “+++ (81% to 100% inhibition at 250 micromolar)”. The “INHIBITION 250 uM RECEPTOR aVb3 SUBSTRATE FIBRINOGEN” value at αVβ3 integrin was “+++ (81% to 100% inhibition at 250 micromolar)”.
Consider `CCOC1O[C@H](COCc2cccc(N)c2)[C@@H](O)[C@H](OCC(=O)O)[C@H]1NC(=O)c1ccccc1` (single isomer, unassigned) [Compound 54], for which, on αllbβ3 integrin, the “INHIBITION @ 250 uM RECEPTOR allBb3 SUBSTRATE FIBRINOGEN” value was “− (0% to 35% inhibition at 250 micromolar)” and the “INHIBITION 250 uM RECEPTOR allBb3 SUBSTRATE VITRONECTIN” value is reported as “++ (61% to 80% inhibition at 250 micromolar)”. Also, the “INHIBITION 250 uM RECEPTOR aVb3 SUBSTRATE FIBRINOGEN” value on αVβ3 integrin is given as “+ (36% to 60% inhibition at 250 micromolar)”.
On the same counts, the results for `CCOCC1OC(OCc2ccccc2)C(NC(=O)c2cccc(N)c2)C(OCc2ccc(C(=O)O)cc2)C1O` (single isomer, unassigned) [Compound 100] are “− (0% to 35% inhibition at 250 micromolar)”, “+++ (81% to 100% inhibition at 250 micromolar)” and “− (0% to 35% inhibition at 250 micromolar)”.
In the case of `CCOC1OC(COCC(=O)O)C(O)C(OCc2cccc(N)c2)C1NC(=O)c1ccc(Cl)cc1` (single isomer, unassigned) [Compound 77], on αllbβ3 integrin, the “INHIBITION @ 250 uM RECEPTOR allBb3 SUBSTRATE FIBRINOGEN” value was “++ (61% to 80% inhibition at 250 micromolar)” and the “INHIBITION 250 uM RECEPTOR allBb3 SUBSTRATE VITRONECTIN” value was “+++ (81% to 100% inhibition at 250 micromolar)”. Besides, the “INHIBITION 250 uM RECEPTOR aVb3 SUBSTRATE FIBRINOGEN” value at αVβ3 integrin is given as “+ (36% to 60% inhibition at 250 micromolar)”.
On the same counts, the results for `COC1OC(COCc2cccc(N)c2)C(O)C(OCc2ccc(C(=O)O)cc2)C1NC(=O)c1ccccc1` (single isomer, unassigned) [Compound 18] are “++ (61% to 80% inhibition at 250 micromolar)”, “+++ (81% to 100% inhibition at 250 micromolar)” and “+++ (81% to 100% inhibition at 250 micromolar)”.
Consider `CCOC1OC(COCc2ccc(Br)cc2)C(O)C(OCc2cccc(N)c2)C1NC(=O)c1ccc(C(=O)O)cc1` (single isomer, unassigned) [Compound 73], for which, on αllbβ3 integrin, the “INHIBITION @ 250 uM RECEPTOR allBb3 SUBSTRATE FIBRINOGEN” value is given as “++ (61% to 80% inhibition at 250 micromolar)” and the “INHIBITION 250 uM RECEPTOR allBb3 SUBSTRATE VITRONECTIN” value is reported as “+++ (81% to 100% inhibition at 250 micromolar)”. Further, on αVβ3 integrin, the “INHIBITION 250 uM RECEPTOR aVb3 SUBSTRATE FIBRINOGEN” value is “− (0% to 35% inhibition at 250 micromolar)”.
Take `CCOC1OC(COCc2cccc(N)c2)C(O)C(OCc2ccc(C(=O)O)cc2)C1NC(=O)c1ccc(Cl)cc1` (single isomer, unassigned) [Compound 64]: at αllbβ3 integrin, the “INHIBITION @ 250 uM RECEPTOR allBb3 SUBSTRATE FIBRINOGEN” value is “− (0% to 35% inhibition at 250 micromolar)” and the “INHIBITION 250 uM RECEPTOR allBb3 SUBSTRATE VITRONECTIN” value was “++ (61% to 80% inhibition at 250 micromolar)”. On αVβ3 integrin, the “INHIBITION 250 uM RECEPTOR aVb3 SUBSTRATE FIBRINOGEN” value is “+ (36% to 60% inhibition at 250 micromolar)”.
With `COC1OC(COCc2ccc(Br)cc2)C(O)C(OCC(=O)O)C1NC(=O)c1cccc(N)c1` (single isomer, unassigned) [Compound 8], on αllbβ3 integrin, the “INHIBITION @ 250 uM RECEPTOR allBb3 SUBSTRATE FIBRINOGEN” value is reported as “+ (36% to 60% inhibition at 250 micromolar)” and the “INHIBITION 250 uM RECEPTOR allBb3 SUBSTRATE VITRONECTIN” value is listed as “+++ (81% to 100% inhibition at 250 micromolar)”. In addition, the “INHIBITION 250 uM RECEPTOR aVb3 SUBSTRATE FIBRINOGEN” value on αVβ3 integrin is “+++ (81% to 100% inhibition at 250 micromolar)”.
As to `COC1OC(COCc2ccccc2)C(O)C(OCc2cccc(N)c2)C1NC(=O)CCC(=O)O` (single isomer, unassigned) [Compound 20], at αllbβ3 integrin, the “INHIBITION @ 250 uM RECEPTOR allBb3 SUBSTRATE FIBRINOGEN” value is listed as “+++ (81% to 100% inhibition at 250 micromolar)” and the “INHIBITION 250 uM RECEPTOR allBb3 SUBSTRATE VITRONECTIN” value is given as “+++ (81% to 100% inhibition at 250 micromolar)”. On αVβ3 integrin, the “INHIBITION 250 uM RECEPTOR aVb3 SUBSTRATE FIBRINOGEN” value is “+++ (81% to 100% inhibition at 250 micromolar)”.
Turning to `CCOC1O[C@H](COCC(=O)O)[C@@H](O)[C@H](OCc2ccc(Br)cc2)[C@H]1NC(=O)c1cccc(N)c1` (single isomer, unassigned) [Compound 39], on αllbβ3 integrin, the “INHIBITION @ 250 uM RECEPTOR allBb3 SUBSTRATE FIBRINOGEN” value is “+ (36% to 60% inhibition at 250 micromolar)” and the “INHIBITION 250 uM RECEPTOR allBb3 SUBSTRATE VITRONECTIN” value is given as “+++ (81% to 100% inhibition at 250 micromolar)”. Also, the “INHIBITION 250 uM RECEPTOR aVb3 SUBSTRATE FIBRINOGEN” value on αVβ3 integrin is “+++ (81% to 100% inhibition at 250 micromolar)”.
With `COCC1OC(OCCNC(=N)N)C(NC(=O)c2ccccc2)C(OCc2ccc(C(=O)O)cc2)C1O` (single isomer, unassigned) [Compound 114], on αllbβ3 integrin, the “INHIBITION @ 250 uM RECEPTOR allBb3 SUBSTRATE FIBRINOGEN” value is “− (0% to 35% inhibition at 250 micromolar)” and the “INHIBITION 250 uM RECEPTOR allBb3 SUBSTRATE VITRONECTIN” value was “++ (61% to 80% inhibition at 250 micromolar)”. Besides, the “INHIBITION 250 uM RECEPTOR aVb3 SUBSTRATE FIBRINOGEN” value at αVβ3 integrin is on record as “− (0% to 35% inhibition at 250 micromolar)”.
On to `Nc1cccc(COC[C@H]2OC[C@H](NC(=O)c3ccccc3)[C@@H](OCC(=O)O)[C@@H]2O)c1` [Compound 56], for which, at αllbβ3 integrin, the “INHIBITION @ 250 uM RECEPTOR allBb3 SUBSTRATE FIBRINOGEN” value is “− (0% to 35% inhibition at 250 micromolar)” and the “INHIBITION 250 uM RECEPTOR allBb3 SUBSTRATE VITRONECTIN” value is recorded as “+++ (81% to 100% inhibition at 250 micromolar)”. The “INHIBITION 250 uM RECEPTOR aVb3 SUBSTRATE FIBRINOGEN” value on αVβ3 integrin is “++ (61% to 80% inhibition at 250 micromolar)”.
Take `COC1OC(COCC(=O)O)C(O)C(OCc2ccccc2)C1NC(=O)C1CCC(CN)CC1` (single isomer, unassigned) [Compound 138]: on αllbβ3 integrin, the “INHIBITION @ 250 uM RECEPTOR allBb3 SUBSTRATE FIBRINOGEN” value was “− (0% to 35% inhibition at 250 micromolar)” and the “INHIBITION 250 uM RECEPTOR allBb3 SUBSTRATE VITRONECTIN” value was “+++ (81% to 100% inhibition at 250 micromolar)”. Moreover, at αVβ3 integrin, the “INHIBITION 250 uM RECEPTOR aVb3 SUBSTRATE FIBRINOGEN” value is “− (0% to 35% inhibition at 250 micromolar)”.
Regarding `CCOC1OC(COCC(=O)O)C(O)C(OCc2ccccc2)C1NC(=O)CN` (single isomer, unassigned) [Compound 116], on αllbβ3 integrin, the “INHIBITION @ 250 uM RECEPTOR allBb3 SUBSTRATE FIBRINOGEN” value is reported as “− (0% to 35% inhibition at 250 micromolar)” and the “INHIBITION 250 uM RECEPTOR allBb3 SUBSTRATE VITRONECTIN” value was “− (0% to 35% inhibition at 250 micromolar)”. In addition, the “INHIBITION 250 uM RECEPTOR aVb3 SUBSTRATE FIBRINOGEN” value on αVβ3 integrin is recorded as “− (0% to 35% inhibition at 250 micromolar)”.
As for `COC1OC(COCc2cccc(N)c2)C(O)C(OCc2ccc(Br)cc2)C1NC(=O)c1ccc(C(=O)O)cc1` (single isomer, unassigned) [Compound 4], on αllbβ3 integrin, the “INHIBITION @ 250 uM RECEPTOR allBb3 SUBSTRATE FIBRINOGEN” value was “− (0% to 35% inhibition at 250 micromolar)” and the “INHIBITION 250 uM RECEPTOR allBb3 SUBSTRATE VITRONECTIN” value is “− (0% to 35% inhibition at 250 micromolar)”. In addition, the “INHIBITION 250 uM RECEPTOR aVb3 SUBSTRATE FIBRINOGEN” value at αVβ3 integrin is reported as “+ (36% to 60% inhibition at 250 micromolar)”.
Turning to `COC1OC(COCc2ccccc2)C(O)C(OCc2ccc(C(=O)O)cc2)C1NC(=O)CCNC(=N)N` (single isomer, unassigned) [Compound 11], on αllbβ3 integrin, the “INHIBITION @ 250 uM RECEPTOR allBb3 SUBSTRATE FIBRINOGEN” value is given as “+ (36% to 60% inhibition at 250 micromolar)” and the “INHIBITION 250 uM RECEPTOR allBb3 SUBSTRATE VITRONECTIN” value was “+++ (81% to 100% inhibition at 250 micromolar)”. The “INHIBITION 250 uM RECEPTOR aVb3 SUBSTRATE FIBRINOGEN” value at αVβ3 integrin is listed as “+ (36% to 60% inhibition at 250 micromolar)”.

For the origin of these results see patent US20080176936A1, “Classes of Compounds that Interact with Integrins” (priority 2005, published 2008).
